Results reported in PMC8952364, “Polyphenols as Inhibitors of Antibiotic Resistant Bacteria—Mechanisms Underlying Rutin Interference with Bacterial Virulence” (Pharmaceuticals, 2022).
Converted amounts (≈) assume the structure as drawn.

Legend:
P. aeruginosa MTCC 2488 = tested on: P. aeruginosa MTCC 2488; design: method as in doi:10.1016/j.foodcont.2018.02.044; conditions: 48 h incubation, cited from earlier work
[1] = tested on: P. aeruginosa IBRS P001 biofilm; assay: Crystal violet antibiofilm assay (biofilm formation); type: cell-based, Pseudomonas aeruginosa; conditions: 24 h
How it was run: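 After incubation, biofilms were washed with PBS (pH 7.4), methanol-fixed and stained 30 min with 0.1% crystal violet. Stain was solubilised in 96% ethanol and read at 620 nm. Values are biofilm-forming capacity (%) relative to control.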

[2] = tested on: P. aeruginosa IBRS P001 biofilm; assay: Congo red binding assay, exopolysaccharide production (biofilm formation); type: cell-based, Pseudomonas aeruginosa
Experimental: (§1) The estimation of rutin’s impact on biofilm exopolysaccharide production (EPS) was determined by the Congo red binding assay. P. aeruginosa IBRS P001 biofilm EPS production was determined as previously described. […] The planktonic cells were removed, and the adherent cells were washed with PBS. Wells were stained with 1% (w/v) Congo red (SigmaAldrich, Germany) in the dark for 30 min. Wells were aspirated and subsequently the bound dye was solubilized with 200 μL DMSO. Absorbance at 490 nm was measured in a microtiter plate reader Multiskan™ FC microplate photometer (Thermo Scientific™, United States) and the inhibition percentage of EPS production was calculated according to the following equation:%Inhibition = [(A490control − A490sample)/A490control] × 100
With A490control representing the absorbance of the untreated biofilm and A490sample the absorbance of the rutin treated sample. The solvent treated sample was used as the control.

[3] = tested on: multiple drug resistant P. aeruginosa; design: method as in doi:10.1016/j.foodcont.2018.02.044; conditions: cited from earlier work
MRSA IBRS MRSA 011 = assay: Catheter biofilm inhibition model; type: cell-based, Staphylococcus aureus; conditions: even in the sub-MIC concentration, 24 h
Experimental: The method was performed as described previously, with some modifications. Sterile silicon 16-mm Romed catheters (Van Oostveen Medical, Wilnis, The Netherlands) were cut into 1 cm lengths and placed in 24-well plates (Sarstedt, Nümbrecht, Germany). P. aeruginosa IBRS P001 and MRSA in TSB with 2% glucose (Torlak, Belgrade, Serbia) and rutin (0.25–1 MIC) were added for the inhibition assay. After incubation (37 °C, 24 h), the catheters were washed with PBS and transferred to 1.5 mL tubes. PBS was added and tubes were vortexed vigorously. The samples were diluted and seeded onto Plate Count Agar (HiMedia Laboratories, Mumbai, India). After being incubated at 37 °C for 24 h, the CFU (colony forming units) count was determined and the inhibition percentage relative to the untreated control was calculated.

rhlI = assay: RT-qPCR analysis of QS genes; type: cell-based, Pseudomonas aeruginosa; conditions: 0.5 MIC, 0.25 mg/mL, vs untreated control
Experimental: (§2) Reverse transcription-quantitative PCR (RT-qPCR) was performed to reveal the impact of rutin on the P. aeruginosa IBRS P001 quorum sensing (QS) regulatory genes expression. The total RNA was extracted from the P. aeruginosa IBRS P001 test strain (grown for 10 h, 37 °C, aerobically) cultivated in Mueller-Hinton medium and supplemented with rutin (0.250 mg/mL, final concentration) or without it by an RNeasy Mini Kit (Qiagen, Hilden, Germany). The same volume of the ethanol (solvent) was added in the positive control. The total RNA was then treated with DNase I using an Ambion DNA-freeTM Kit (ThermoFisher, Waltham, MA, USA) and reverse transcribed by a Rever-tAid RT Reverse transcription Kit (ThermoFisher, Waltham, MA, USA) according to the manufacturer’s instructions. […] Obtained data were normalized against the ribosomal gene rpsL as an internal control following the 2^−ΔΔCT method. Experiments were done in triplicate.

rhlR = assay: RT-qPCR analysis of QS genes; type: cell-based, Pseudomonas aeruginosa; conditions: 0.5 MIC, 0.25 mg/mL, vs untreated control
Experimental: as §2

lasI = assay: RT-qPCR analysis of QS genes; type: cell-based, Pseudomonas aeruginosa; conditions: 0.5 MIC, 0.25 mg/mL, vs untreated control
Experimental: as §2

mvfR = assay: RT-qPCR analysis of QS genes; type: cell-based, Pseudomonas aeruginosa; conditions: 0.5 MIC, 0.25 mg/mL, vs untreated control
Experimental: as §2

pqsA = assay: RT-qPCR analysis of QS genes; type: cell-based, Pseudomonas aeruginosa; conditions: 0.5 MIC, 0.25 mg/mL, vs untreated control
Experimental: as §2

lasR = assay: RT-qPCR analysis of QS genes; type: cell-based, Pseudomonas aeruginosa; conditions: 0.5 MIC, 0.25 mg/mL, vs untreated control
Experimental: as §2

EPS production = tested on: EPS production; design: method as in doi:10.1016/j.foodcont.2018.02.044; conditions: 200 µg/mL of rutin; cited from earlier work
[4] = tested on: 24 h old P. aeruginosa IBRS P001 biofilms; assay: Biofilm eradication, Congo red binding assay (exopolysaccharide); type: cell-based, Pseudomonas aeruginosa
Experimental: as §1
The bacterial cells were incubated in TSB enriched with 2% glucose in 96-well plates (Sarstedt, Germany) with adhesive bottom at 37 °C for 24 h. After incubation, wells were washed with PBS, and rutin (MBC–4 MBC) in TSB with 2% glucose was added. Incubation continued at 37 °C for another 24 h. The planktonic cells were removed.
The assays continued as described above for the crystal violet antibiofilm assay for the measurement of biofilm mass, biofilm MTT assay for the interference with cell viability, Congo red binding assay for estimation of exopolysaccharide production, and eDNA assay.

[5] = tested on: P. aeruginosa IBRS P001 pyocyanin production; assay: Pyocyanin assay; type: cell-based, Pseudomonas aeruginosa; conditions: 0.25 mg/mL (0.5 MIC), compared to the control
Experimental: Pyocyanin extraction from the culture supernatant was performed using chloroform in a 1:2 ratio [71]. The second extraction of the chloroform phase was done by 0.2 N HCl (3:1 ratio). The pyocyanin concentration was evaluated by recording the absorbance at 520 nm using a Plate Reader Infinite 200 pro (MTX Lab Systems, Vienna, VA, USA). The pyocyanin concentration was calculated by multiplication of the absorbance (A520) by 17.072. A solvent-treated culture supernatant was used as a positive control.

SMILES: C[C@@H]1O[C@@H](OC[C@H]2O[C@@H](Oc3c(-c4ccc(O)c(O)c4)oc4cc(O)cc(O)c4c3=O)[C@H](O)[C@@H](O)[C@@H]2O)[C@H](O)[C@H](O)[C@H]1O [Rutin, rutin]
- highest biofilm inhibition (P. aeruginosa MTCC 2488; 400 µg/mL): 45.33%
- biofilm inhibition (P. aeruginosa MTCC 2488; sub-MIC concentrations 50–400 µg/mL): up to 50%
- reduction of biofilm formation (biomass), in words ([1]; MIC and sub-MIC, crystal violet, Figure 1): significant (****, p < 0.0001) reduction
- biofilm biomass formed after treatment ([1]; MIC, 500 µg/mL): 6%
- inhibition at 500 µg/mL ([1]; Pseudomonas aeruginosa, IBRSP001BIOFILM, 500 µg/mL (MIC)): 94%
- exopolysaccharide level, % of production compared to vehicle treated control ([2]; 0.25 MIC): 72%
- exopolysaccharide level, % of production compared to vehicle treated control ([2]; 0.5 MIC): 56%
- exopolysaccharide level, % of production compared to vehicle treated control ([2]; MIC): 50%
- inhibition at 250 µg/mL ([2]; Pseudomonas aeruginosa, IBRSP001BIOFILM, read-out: inhibition of produced exopolysaccharides): 44%
- MIC [3]: 800 µg/mL (≈ 1310 µM)
- catheter biofilm forming ability, in words (MRSA IBRS MRSA 011): significantly reduced
- downregulation of relative mRNA level (rhlI): 2.6 fold
- decrease of relative expression (rhlR): about 1.7 times
- decrease of relative expression (lasI): 2.4 times
- decrease of relative expression (mvfR): 2.2 times
- downregulation of relative mRNA level (pqsA): 3 fold
- decrease of relative expression (lasR): about 1.7 times
- inhibition of EPS production (EPS production): more than 40%
- exopolysaccharide production decreased to ([4]; 2 MBC): 65%
- exopolysaccharide production decreased to ([4]; 4 MBC): 69%
- exopolysaccharide production decreased to ([4]; MBC): 89%
- decrease of pyocyanin production [5]: 82.1%
